Measurements taken from patent EP4650353A1 (Shanghai Institute of Materia Medica, Chinese Academy of …, priority 2023, dated 2024).

How the values were obtained:
β-arrestin 1 = experiment: NanoBiT recruitment of β-arrestin 1 by GLP-1R in HEK293 cells; assay type: cell-based; conditions: Homo sapiens, read-out: maximum agonistic effect (Emax) recruiting β-arrestin 1;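 also: 100% equals the maximal response of endogenous GLP-1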
Excerpt: (§1) The Promega NanoBiT protein-protein reaction system was used to detect the recruitment of β-arrestin 1 and β-arrestin 2 by GLP-1R. The NanoBit Protein-Protein Reaction System was a dual-subunit system based on NanoLuc luciferase that could be used to detect protein-protein interactions in cells. The LgBiT (17.6 kDa) and SmBiT (11 amino acids) subunits were fused to the proteins of interest, respectively. When the proteins of interest interact, the two subunits came into close proximity to form an enzyme with catalytic activity, which could catalyze the luminescence of the luciferase substrate. Firstly, the human GLP-1R gene was connected to the N-terminus of LgBit, the β-arrestin 1/2 gene was cloned to the C-terminus of SmBit, and the fusion protein was introduced into the pcDNA3.0 vector to construct plasmids expressing hGLP-1R-LgBit and SmBit-β-arrestin 1/2 fusion proteins. The hGLP-1R-LgBit plasmid and SmBit-β-arrestin 1 (or SmBit-β-arrestin 2) plasmid were co-transfected into HEK293 cells at a ratio of 1 µg plasmid/2×10^6 cells. Immediately after transfection, the cells were added to a 96-well white-bottom plate at a density of 4×10^5 cells/well, and the cells were cultured in an incubator (37°C, 5% CO2) for 20 hours.
(§2) After 20 hours, the liquid in the wells was discarded, 40 µL of fresh culture medium (DMEM+0.2% BSA, m/v) was added first, and then 10 µL of Nano-Glo Live Cell detection solution (Promega, #N2011) was added, and then the cells were placed in an incubator and incubated for 10 minutes. The compound was dissolved in DMSO and prepared into a storage solution with a concentration of 10mM. The experiment started with a concentration of 100µM. […] After the cells were incubated for 10 min, 25 µL of culture medium containing the compound was added to each well and incubated at room temperature for 5 min. The fluorescence signal was then detected using an Envision 2104 multi-function microplate reader (PerkinElmer). All samples were tested in triplicate, and the fluorescence signal ratio and the corresponding compound concentration were analyzed using GraphPad Prism 8 software.

β-arrestin 2 = experiment: NanoBiT recruitment of β-arrestin 2 by GLP-1R in HEK293 cells; assay type: cell-based; conditions: Homo sapiens, read-out: maximum agonistic effect (Emax) recruiting β-arrestin 2;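 also: 100% equals the maximal response of endogenous GLP-1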
Excerpt: as §1, §2

human GLP-1 receptor = molecular target: T1, human GLP-1 receptor (Homo sapiens, UniProt P43220); experiment: GLP-1 receptor-mediated agonist activity: cAMP level in hGLP-1R/HEK293 cell line (HTRF); assay type: cell-based; conditions: cAMP levels in hGLP-1R/HEK293 cell line; Table 1; read-out: determined EC50
T1 construct: HA (N); expressed in transfected cells
T1 sequence (P43220 24-463): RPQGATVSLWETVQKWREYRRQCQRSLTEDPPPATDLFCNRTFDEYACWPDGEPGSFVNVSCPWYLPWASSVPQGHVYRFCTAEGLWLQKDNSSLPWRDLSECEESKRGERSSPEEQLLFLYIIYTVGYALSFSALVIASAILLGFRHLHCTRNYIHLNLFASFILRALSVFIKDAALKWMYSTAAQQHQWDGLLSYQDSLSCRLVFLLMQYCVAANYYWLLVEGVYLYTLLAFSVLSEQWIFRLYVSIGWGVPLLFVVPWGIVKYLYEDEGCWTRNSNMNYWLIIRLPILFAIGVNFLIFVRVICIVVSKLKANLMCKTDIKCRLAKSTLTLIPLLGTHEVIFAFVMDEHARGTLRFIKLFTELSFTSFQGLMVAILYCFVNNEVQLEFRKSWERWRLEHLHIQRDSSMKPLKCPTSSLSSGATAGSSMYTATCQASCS
Method: The hGLP-1R/HEK293 cells were digested, centrifuged and resuspended in culture medium (DMEM+0.2% BSA, m/v), and the cell density was adjusted to 2×10^5 cells/mL. IBMX (3-isobutyl-1-methylxanthine, final concentration of 0.5 mM) was added to the cell suspension and added to a 384-well plate at 5 µL (1×10^3 cells)/well. The compound was dissolved in DMSO to prepare a stock solution with a concentration of 10 mM. The experiment started with a concentration of 100 µM which was diluted 10 times in a series of 7 dilution points, with the 8th point being DMSO. 2 µL of the test compound of different concentrations was added to 98 µL of culture medium, shaken and mixed, 5 µL was taken and added to a 384-well plate (final concentration of the test compound was 0-100 nM, final concentration of DMSO was 1%, v/v), which was then incubated in the incubator (37°C, 5% CO2) in the dark for 30 min, then 10 µL of cAMP detection reagent (LANCE Ultra cAMP Detecion Kit, PerkinElmer, #TRF0264) was added, mixed well, and reacted at room temperature in the dark for 1 h. After the reaction was completed, the HTRF signal was read using the Envision 2104 multi-function microplate reader. All samples were tested in triplicate wells, and the ratio of the acceptor-donor excitation signal in each single well was calculated using the formula Ratio = Signal 665nM/Signal 620nM. The HTRF signal ratio and the corresponding compound concentration were analyzed and processed using GraphPad Prism 8 software, and the EC50 value of the compound was obtained by fitting the S-type dose-response curve and calculating.

hERG potassium channels = hERG potassium channels (Homo sapiens, UniProt Q12809); experiment: cell-based
Sequence of hERG potassium channels (Q12809 whole entry): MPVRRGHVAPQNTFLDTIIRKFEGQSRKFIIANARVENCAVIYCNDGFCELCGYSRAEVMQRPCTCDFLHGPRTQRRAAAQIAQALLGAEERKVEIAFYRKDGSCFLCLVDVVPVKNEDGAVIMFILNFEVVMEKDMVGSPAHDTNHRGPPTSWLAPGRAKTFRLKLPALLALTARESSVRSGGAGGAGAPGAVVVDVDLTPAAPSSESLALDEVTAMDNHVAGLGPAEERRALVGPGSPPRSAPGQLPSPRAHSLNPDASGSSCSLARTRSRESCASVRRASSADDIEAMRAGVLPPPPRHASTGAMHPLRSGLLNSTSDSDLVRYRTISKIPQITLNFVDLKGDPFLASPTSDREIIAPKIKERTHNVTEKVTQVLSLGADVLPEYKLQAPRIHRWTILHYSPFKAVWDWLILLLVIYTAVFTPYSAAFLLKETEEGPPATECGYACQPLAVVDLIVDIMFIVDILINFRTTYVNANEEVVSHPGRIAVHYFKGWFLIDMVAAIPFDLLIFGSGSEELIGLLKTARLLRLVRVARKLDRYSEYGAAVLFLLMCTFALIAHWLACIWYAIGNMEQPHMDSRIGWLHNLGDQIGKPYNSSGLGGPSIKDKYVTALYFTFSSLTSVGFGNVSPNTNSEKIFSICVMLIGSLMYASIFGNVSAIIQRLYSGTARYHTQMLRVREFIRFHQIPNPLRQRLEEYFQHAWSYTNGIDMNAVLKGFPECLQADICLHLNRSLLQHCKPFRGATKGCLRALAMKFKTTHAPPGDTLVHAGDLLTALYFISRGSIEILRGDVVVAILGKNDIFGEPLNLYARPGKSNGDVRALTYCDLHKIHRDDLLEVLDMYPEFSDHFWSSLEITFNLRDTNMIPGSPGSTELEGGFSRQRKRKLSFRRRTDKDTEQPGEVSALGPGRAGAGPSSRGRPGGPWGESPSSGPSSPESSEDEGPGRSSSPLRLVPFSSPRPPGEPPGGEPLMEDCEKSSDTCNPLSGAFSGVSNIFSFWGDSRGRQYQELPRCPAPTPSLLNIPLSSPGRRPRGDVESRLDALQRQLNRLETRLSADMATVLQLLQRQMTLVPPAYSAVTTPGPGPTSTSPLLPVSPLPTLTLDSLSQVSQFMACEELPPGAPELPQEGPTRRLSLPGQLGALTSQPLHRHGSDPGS
Method: CHO cells expressing hERG protein were cultured in 175 cm^2 culture flasks. When the cell density grew to 60-80%, the culture medium was removed, the cells were washed once with 7 mL PBS, and then 3 mL Detachin was added for digestion. After digestion was complete, 7 mL of culture medium was added to neutralize, then centrifuged. The supernatant was aspirated, and 5 mL of culture medium was added to resuspend to ensure that the cell density is 2-5×10^6/mL.
Both the single-cell high-impedance sealing and whole-cell mode formation processes were automatically completed by the Qpatch instrument. After obtaining the whole-cell recording mode, the cell was clamped at -80 mV. Before a 5-second +20 mV depolarizing stimulus was given, a 50-ms -50 mV pre-voltage was given, and then the cell was repolarized to -50 mV for 5 seconds and then returned to -80 mV. This voltage stimulation was applied every 15 seconds. After recording for 2 minutes, the extracellular solution was recorded for 2 minutes. Then the drug administration process began. The compound concentration started from the lowest tested concentration. Each tested concentration was given for 2 minutes. […] At least three cells were tested for each concentration (n≥3).
The compound stock solution was diluted with extracellular fluid, 5 µL of 20 mM compound stock solution was added to 2495 µL extracellular fluid, diluted 500 times to 40 µM, and then serially diluted 3 times in extracellular fluid containing 0.2% DMSO (v/v) to obtain the final concentration to be tested.
The experimental data were analyzed by XLFit software.

[1] = test system: hGLP-1 receptor knock-in mice; experiment: Oral glucose tolerance test in mice; assay type: in vivo; conditions: for effect compared with positive control PF-06882961 ammonium salt at the same dose: oral glucose tolerance test; for blood glucose area under the curve / blood glucose concentration: orally administered at 1 mg/kg, vs blank control; for blood glucose area under the curve: AUC(0-90)
Method: (§3) Genetically engineered hGLP-1R gene knock-in mice, male, 8-10 weeks old, specific pathogen free (SPF) grade, were purchased from Biocytogen Jiangsu Gene Biotechnology Co., Ltd. All experimental animals were housed in the SPF-level environment of the National Compound Sample Library animal room, with a temperature of 24±2°C, a relative humidity of 40-60%RH, an air cleanliness level of 7, and a day and night light-dark cycle of 12h/12h; they were continuously supplied with cobalt-60 radiation-sterilized complete mouse granular feed (Shanghai Shilin Biotechnology Co., Ltd., maintenance feed for rats and mice), and were allowed to drink tap water (sterilized with high-pressure steam) without interruption, and were allowed to drink it freely. The cages were transparent polyetherimide cages (Suzhou Fengshi Experimental Animal Equipment Co., Ltd., CP-8 mouse cages), and the bedding was corn cobs (Tezhou Gumei Agricultural Technology Co., Ltd., used after high-pressure steam sterilization). There were 3-5 animals in each cage, and the cage card indicated the IACUC approval number, experiment number, experiment start time, person in charge, experimenter, animal source, group and animal number. The purchased mice were adapted to this breeding environment for at least 7 days before being used in experiments. The animal use methods in this study were approved by the IACUC Committee of the Shanghai Institute of Materia Medica.
60 minutes after oral administration, blood glucose was measured again as zero-point blood glucose. Then, 2 g/kg of sugar was orally administered, and blood glucose was measured using a blood glucose meter 15 minutes, 30 minutes, 60 minutes, and 90 minutes after sugar administration. In order to explore the effect of long-term administration on glucose tolerance, 2 g/kg of sugar was orally administered again […] the administration of the compound, and the blood glucose changes were measured at 180 min, 195 min, 210 min, 240 min, and 270 min.

[2] = test system: hGLP-1 receptor knock-in mice; experiment: Mouse food intake suppression experiment (compound 19); assay type: in vivo; conditions: 30 mg/kg oral
Method: as §3, with “The animal use methods in this study were approved by the IACUC Committee of the Shanghai Institute of Materia Medica.” left out

hGLP-1R KI mice = experiment: Diet inhibition by Tris salts (food intake after single oral dose); assay type: in vivo; conditions: 30 mg/kg; for duration of the food intake reducing effect / food intake: Tris salt, single oral administration
Method: Mouse model: hGLP-1R KI mice, 8 female mice per experimental group.
Experimental procedure: Mice were separated into cages and fasted 6 hours in advance, and were given drugs by oral gavage at the beginning of the night cycle (7:00 PM). The weight of food in each cage was weighed at 0, 2.5, 5, 12 (7:00 AM at the beginning of the day cycle), and 24 hours after drug administration to calculate the food intake of mice.

[3] = test system: hGLP-1 receptor knock-in mice; experiment: Long-term administration in high-fat diet fed hGLP-1R mice for weight loss; assay type: in vivo; conditions: ammonium salt
Method: as §3
The mice were weighed every day, and 24 hours after the last administration, the body fat and muscle content of the mice were detected using a Bruker desktop nuclear magnetic resonance spectrometer (model LF90II). • (4) Experimental results

Structure (SMILES): O=C(O)c1cc(F)c2nc(CN3CCN(c4cccc(OCc5ccc(Cl)cc5F)n4)C=N3)n(C[C@@H]3CCO3)c2c1 [CN2022114139828 , Compound 2, reference compound]
- Emax (β-arrestin 1): 75 to 80%
- Emax (β-arrestin 2): 75 to 80%

Structure (SMILES): CCCOc1cc(C(=O)O)cc2c1nc(CN1CCC(c3cccc(OCc4ccc(C#N)cc4F)n3)CC1)n2C[C@@H]1CCO1 [Compound 3, (S)-2-((4-(6-((4-cyano-2-fluorobenzyl)oxy)pyridin-2-yl)piperidin-1-yl)methyl)-1-(oxetan-2-ylmethyl)-4-propoxy-1H-benzo[d]imidazole-6-carboxylic acid]
- Emax (β-arrestin 1): 30 to 50%
- Emax (β-arrestin 2): 30 to 50%
- EC50 (human GLP-1 receptor): 0.0064 nM

Structure (SMILES): COc1cc(C#N)ccc1COc1cccc(C2CCN(Cc3nc4c(OC)cc(C(=O)O)cc4n3C[C@@H]3CCO3)CC2)n1 [Compound 4, (S)-2-((4-(6-((4-cyano-2-methoxybenzyl)oxy)pyridin-2-yl)piperidin-1-yl)methyl)-4-methoxy-1-(oxetan-2-ylmethyl)-1H-benzo[d]imidazole-6-carboxylic acid]
- Emax (β-arrestin 1): 30 to 50%
- Emax (β-arrestin 2): 30 to 50%

Structure (SMILES): COc1cc(C(=O)O)cc2c1nc(CN1CCC(c3cccc(OCc4ccc(Cl)cc4F)n3)CC1)n2C[C@@H]1CCO1 [Compound 19, (S)-2-((4-(6-((4-chloro-2-fluorobenzyl)oxy)pyridin-2-yl)piperidin-1-yl)methyl)-4-methoxy-1-(oxetan-2-ylmethyl)-1H-benzo[d]imidazole-6-carboxylic acid]
- EC50 (human GLP-1 receptor): 0.0026 nM
- IC50 (hERG potassium channels): 12500 nM
- effect compared with positive control PF-06882961 ammonium salt at the same dose ([1]; 1 mg/kg oral): better than the positive control PF-06882961 ammonium salt
- lowering blood sugar in long-term oral glucose tolerance test ([1]; ammonium salt, 1 mg/kg oral, second sugar load 240 min after administration, AUC(180-270), vs PF-06882961 ammonium salt): more significant effect in lowering blood sugar
- blood glucose area under the curve ([1]; ammonium salt): significantly reduce
- blood glucose concentration ([1]; ammonium salt): significantly reduce
- effect on food intake compared with positive control PF-06882961 ammonium salt at the same dose [2]: better than the positive control PF-06882961 ammonium salt
- food intake ([2]; ammonium salt, within 0 to 12 hours after administration): significantly inhibit the food intake

Structure (SMILES): COc1cc(Cl)ccc1COc1cccc(N2C=NN(Cc3nc4c(OC)cc(C(=O)O)cc4n3C[C@@H]3CCO3)CC2)n1 [Compound 20, (S)-2-((4-(6-((4-chloro-2-methoxybenzyl)oxy)pyridin-2-yl)-5,6-dihydro-1,2,4-triazin-1(4H)-yl)methyl)-4-methoxy-1-(oxetan-2-ylmethyl)-1H-benzo[d]imidazole-6-carboxylic acid]
- Emax (β-arrestin 1): 30 to 50%
- Emax (β-arrestin 2): 30 to 50%
- IC50 (hERG potassium channels): > 40000 nM
- effect compared with positive control PF-06882961 ammonium salt at the same dose ([1]; 1 mg/kg oral): better than the positive control PF-06882961 ammonium salt
- blood glucose area under the curve ([1]; ammonium salt): significantly reduce
- blood glucose concentration ([1]; ammonium salt): significantly reduce

Structure (SMILES): CCOc1cc(C(=O)O)cc2c1nc(CN1CCN(c3cccc4c3O[C@@](C)(c3ccc(C(F)(F)F)cc3F)O4)C=N1)n2C[C@@H]1CCO1 [Compound 81-1, 4-ethoxy-2-((4-((S)-2-(2-fluoro-4-(trifluoromethyl)phenyl)-2-methylbenzo[d][1,3]dioxol-4-yl)-5,6-dihydro-1,2,4-triazin-1(4H)-yl)methyl)-1-(((S)-oxetan-2-yl)methyl)-1H-benzo[d]imidazole-6-carboxylic acid]
- EC50 (human GLP-1 receptor): 0.0018 nM
- inhibitory effect on eating compared with Tris salt of positive control PF-06882961 at the same dose (hGLP-1R KI mice; at 5, 12 and 24 hours): significantly better than
- duration of the food intake reducing effect (hGLP-1R KI mice): 24 h
- food intake (hGLP-1R KI mice): significantly reduce the food intake

Structure (SMILES): [2H]C([2H])([2H])C([2H])([2H])Oc1cc(C(=O)O)cc2c1nc(CN1CCN(c3cccc4c3O[C@@](C)(c3ccc(C(F)(F)F)cc3F)O4)C=N1)n2C[C@@H]1CCO1 [Compound 82-1, 4-(ethoxy-d5)-2-((4-((S)-2-(2-fluoro-4-(trifluoromethyl)phenyl)-2-methylbenzo[d][1,3]dioxol-4-yl)-5,6-dihydro-1,2,4-triazin-1(4H)-yl)methyl)-1-(((S)-oxetan-2-yl)methyl)-1H-benzo[d]imidazole-6-carboxylic acid]
- EC50 (human GLP-1 receptor): 0.0051 nM
- duration of the food intake reducing effect (hGLP-1R KI mice): 24 h
- food intake (hGLP-1R KI mice): significantly reduce the food intake

Structure (SMILES): N#Cc1ccc(COc2cccc(C3CCN(Cc4nc5ccc(C(=O)O)cc5n4C[C@@H]4CCO4)CC3)n2)c(F)c1 [PF-06882961, reference compound]
- weight gain of HFD-fed mice ([3]; 30 mg/kg by gavage once a day, 15 days): effectively inhibit the weight gain
- reduce body weight compared with the blank control group ([3]; 30 mg/kg once a day, after 15 days of administration, HFD): 10.2%
- Emax (β-arrestin 1): 75 to 80%
- Emax (β-arrestin 2): 75 to 80%
